Here are results for 14 substances from the OligoGym collection.

HELM strings list units from the 5' end as sugar, base in round brackets, then linkage (d deoxyribose, r ribose, m 2'-O-methyl, p phosphodiester). Strings are as the collection lists them, not checked against the first reports. ss, as = sense and antisense strand; [s4r] = 4'-thioribose; [fl2r] = 2'-fluoro
Also: test system not given here.

For this series the following is noted: siRNA.
In turn, “RNA1{r(A)p.r(A)p.r(C)p.r(C)p.[fl2r](C)p.r(A)p.r(C)p.r(C)p.r(A)p.r(C)p.r(A)p.r(G)p.r(C)p.[fl2r](U)p.r(A)p.r(G)p.r(A)p.r(A)p.r(C)p.r(U)p.r(U)}|RNA2{r(G)p.r(U)p.r(U)p.r(C)p.[fl2r](U)p.[fl2r](A)p.r(G)p.r(C)p.[fl2r](U)p.r(G)p.r(U)p.r(G)p.r(G)p.r(U)p.r(G)p.r(G)p.r(G)p.r(U)p.r(U)p.r(U)p.r(U)}$$$RNA1{StrandType:ss}|RNA2{StrandType:as}$” yielded a target mRNA knockdown of 86%. The figure for “RNA1{r(G)p.r(A)p.r(A)p.r(A)p.r(C)p.r(U)p.r(G)p.r(G)p.[fl2r](U)p.r(A)p.r(C)p.r(U)p.r(U)p.r(U)p.r(C)p.r(C)p.r(C)p.r(C)p.r(C)p.r(T)p.r(T)}|RNA2{r(G)p.r(G)p.r(G)p.r(G)p.r(G)p.r(A)p.r(A)p.r(A)p.r(G)p.[fl2r](U)p.r(A)p.r(C)p.r(C)p.r(A)p.r(G)p.r(U)p.r(U)p.r(U)p.r(C)p.r(T)p.r(T)}$$$RNA1{StrandType:ss}|RNA2{StrandType:as}$” is 58%; for “RNA1{r(G)p.r(G)p.r(A)p.r(G)p.r(C)p.m(U)p.m(A)p.r(G)p.r(A)p.r(C)p.r(G)p.r(G)p.r(G)p.m(U)p.r(A)p.r(C)p.r(G)p.r(A)p.r(G)p.r(T)p.r(T)}|RNA2{r(C)p.r(U)p.r(C)p.r(G)p.r(U)p.r(A)p.r(C)p.r(C)p.r(C)p.r(G)p.r(U)p.r(C)p.m(U)p.r(A)p.r(G)p.r(C)p.r(U)p.r(C)p.r(C)p.r(T)p.r(T)}$$$RNA1{StrandType:ss}|RNA2{StrandType:as}$” it is 81%.

As for “RNA1{r(A)p.r(A)p.r(A)p.r(C)p.r(A)p.r(U)p.r(G)p.r(C)p.r(A)p.r(G)p.r(A)p.r(A)p.r(A)p.r(A)p.r(U)p.r(G)p.r(C)p.r(U)p.r(G)p.r(T)p.r(T)}|RNA2{r(C)p.r(A)p.r(G)p.r(C)p.r(A)p.r(U)p.r(U)p.r(U)p.r(U)p.r(C)p.r(U)p.r(G)p.r(C)p.r(A)p.r(U)p.r(G)p.r(U)p.[s4r](U)p.[s4r](U)p.r(T)p.r(T)}$$$RNA1{StrandType:ss}|RNA2{StrandType:as}$”, the target mRNA knockdown was 57.2%. The value for “RNA1{[s4r](A)p.[s4r](A)p.r(A)p.r(C)p.r(A)p.r(U)p.r(G)p.r(C)p.r(A)p.r(G)p.r(A)p.r(A)p.r(A)p.r(A)p.r(U)p.r(G)p.r(C)p.r(U)p.r(G)p.r(T)p.r(T)}|RNA2{[s4r](C)p.[s4r](A)p.r(G)p.r(C)p.r(A)p.r(U)p.r(U)p.r(U)p.r(U)p.r(C)p.r(U)p.r(G)p.r(C)p.r(A)p.r(U)p.r(G)p.r(U)p.[s4r](U)p.[s4r](U)p.r(T)p.r(T)}$$$RNA1{StrandType:ss}|RNA2{StrandType:as}$” was 44.8%; that for “RNA1{m(C)p.r(G)p.m(C)p.r(C)p.m(C)p.r(C)p.m(C)p.r(C)p.m(U)p.r(C)p.m(A)p.r(A)p.m(G)p.r(C)p.m(U)p.r(A)p.m(C)p.r(C)p.m(G)p.r(T)p.r(T)}|RNA2{r(C)p.r(G)p.r(G)p.r(U)p.r(A)p.r(G)p.r(C)p.r(U)p.r(U)p.r(G)p.r(A)p.r(G)p.r(G)p.r(G)p.r(G)p.r(G)p.r(G)p.r(C)p.r(G)p.r(T)p.r(T)}$$$RNA1{StrandType:ss}|RNA2{StrandType:as}$” was 44%. The value for “RNA1{r(G)p.r(G)p.r(C)p.r(C)p.r(A)p.r(A)p.r(A)p.r(G)p.m(U)p.r(A)p.r(A)p.r(U)p.r(C)p.r(G)p.r(U)p.r(G)p.r(G)p.r(U)p.r(U)p.r(T)p.r(T)}|RNA2{r(A)p.r(A)p.r(C)p.r(C)p.r(A)p.r(C)p.r(G)p.r(A)p.r(U)p.m(U)p.r(A)p.r(C)p.r(U)p.r(U)p.r(U)p.r(G)p.r(G)p.r(C)p.r(C)p.r(T)p.r(T)}$$$RNA1{StrandType:ss}|RNA2{StrandType:as}$” was 85%; that for “RNA1{r(A)p.r(A)p.r(G)p.[fl2r](U)p.r(A)p.r(G)p.r(U)p.r(C)p.r(C)p.r(C)p.[fl2r](C)p.r(C)p.r(U)p.[fl2r](U)p.r(G)p.r(A)p.r(A)p.r(G)p.r(A)p.r(T)p.r(T)}|RNA2{r(U)p.r(C)p.r(U)p.r(U)p.[fl2r](C)p.r(A)p.r(A)p.r(G)p.r(G)p.r(G)p.r(G)p.r(G)p.r(A)p.r(C)p.[fl2r](U)p.r(A)p.r(C)p.r(U)p.r(U)p.r(T)p.r(T)}$$$RNA1{StrandType:ss}|RNA2{StrandType:as}$” was 64%; that for “RNA1{m(U)p.r(U)p.m(A)p.r(C)p.m(A)p.r(A)p.m(A)p.r(G)p.m(G)p.r(A)p.m(U)p.r(C)p.m(U)p.r(C)p.m(C)p.r(U)p.m(C)p.r(C)p.m(C)p.r(T)p.r(T)}|RNA2{r(G)p.r(G)p.r(G)p.m(A)p.r(G)p.r(G)p.m(A)p.r(G)p.m(A)p.r(U)p.r(C)p.r(C)p.r(U)p.r(U)p.r(U)p.r(G)p.r(U)p.m(A)p.m(A)p.r(T)p.r(T)}$$$RNA1{StrandType:ss}|RNA2{StrandType:as}$” was 51%. The figure for “RNA1{r(A)p.m(U)p.r(G)p.r(G)p.r(G)p.r(A)p.r(G)p.r(A)p.r(A)p.r(G)p.m(U)p.r(A)p.r(G)p.r(U)p.r(C)p.r(C)p.r(C)p.r(C)p.r(C)p.r(T)p.r(T)}|RNA2{r(G)p.r(G)p.r(G)p.r(G)p.r(G)p.r(A)p.r(C)p.m(U)p.r(A)p.r(C)p.r(U)p.r(U)p.r(C)p.r(U)p.r(C)p.r(C)p.m(C)p.r(A)p.r(U)p.r(T)p.r(T)}$$$RNA1{StrandType:ss}|RNA2{StrandType:as}$” is 82%; for “RNA1{r(G)p.r(C)p.r(A)p.r(G)p.r(C)p.r(A)p.r(C)p.r(G)p.r(A)p.r(C)p.r(U)p.r(U)p.r(C)p.r(U)p.r(U)p.r(C)p.r(A)p.r(A)p.r(G)p.r(T)p.r(T)}|RNA2{[fl2r](C)p.[fl2r](U)p.[fl2r](U)p.r(G)p.r(A)p.r(A)p.r(G)p.r(A)p.r(A)p.r(G)p.[fl2r](U)p.[fl2r](C)p.r(G)p.[fl2r](U)p.r(G)p.[fl2r](C)p.[fl2r](U)p.r(G)p.[fl2r](C)p.r(T)p.r(T)}$$$RNA1{StrandType:ss}|RNA2{StrandType:as}$” it is 83%; for “RNA1{r(G)p.r(A)p.r(A)p.r(A)p.r(C)p.m(U)p.m(G)p.r(G)p.m(U)p.r(A)p.r(C)p.r(U)p.r(U)p.r(U)p.r(C)p.r(C)p.r(C)p.r(C)p.r(C)p.r(T)p.r(T)}|RNA2{r(G)p.r(G)p.r(G)p.r(G)p.r(G)p.r(A)p.r(A)p.r(A)p.r(G)p.m(U)p.r(A)p.r(C)p.r(C)p.r(A)p.r(G)p.r(U)p.r(U)p.r(U)p.r(C)p.r(T)p.r(T)}$$$RNA1{StrandType:ss}|RNA2{StrandType:as}$” it is 88%. Substance “RNA1{r(G)p.r(A)p.r(G)p.r(G)p.r(A)p.r(A)p.r(G)p.r(A)p.m(U)p.r(G)p.r(A)p.r(G)p.r(U)p.m(U)p.r(G)p.m(U)p.r(A)p.r(C)p.r(C)p.r(T)p.r(T)}|RNA2{r(G)p.r(G)p.r(U)p.r(A)p.m(C)p.r(A)p.r(A)p.r(C)p.r(U)p.m(C)p.r(A)p.r(U)p.r(C)p.r(U)p.r(U)p.r(C)p.r(C)p.r(U)p.r(C)p.r(T)p.r(T)}$$$RNA1{StrandType:ss}|RNA2{StrandType:as}$” had a target mRNA knockdown of 76%. The figure for “RNA1{r(A)p.r(A)p.m(U)p.r(A)p.r(A)p.r(G)p.r(C)p.r(A)p.r(G)p.r(C)p.r(U)p.r(C)p.r(G)p.r(C)p.r(G)p.r(C)p.r(U)p.r(C)p.r(C)p.r(T)p.r(T)}|RNA2{r(G)p.r(G)p.r(A)p.r(G)p.r(C)p.r(G)p.r(C)p.r(G)p.r(A)p.r(G)p.r(C)p.r(U)p.r(G)p.r(C)p.r(U)p.m(U)p.r(A)p.r(U)p.r(U)p.r(T)p.r(T)}$$$RNA1{StrandType:ss}|RNA2{StrandType:as}$” is 69%.
